According to patent US7744867B2, “PTPase inhibitors and method of using same” (The Cleveland Clinic Foundation, priority 2001, dated 2010):

Assays:
[1] = system: H9 cells (T-lymphoma); test: Growth inhibition of human tumor cell lines; format: cell-based; settings: SS 12.5 μg/ml, IFNα 1,000 u/ml, alone or combined
[2] = system: RC45 cells (Renal cell carcinoma); test: Growth inhibition of human tumor cell lines; format: cell-based; settings: SS 12.5 μg/ml, IFNα 1,000 u/ml, alone or combined
[3] = biological target: T1, GST/SHP-1 fusion protein (Mus musculus, UniProt P29351); test: Reversibility of SHP-1 inhibition (washing of bead-bound GST/SHP-1); format: biochemical; settings: preincubated with inhibitor, then washed
T1 construct: made in house
T1 sequence (P29351 whole entry, the tested form may be a part): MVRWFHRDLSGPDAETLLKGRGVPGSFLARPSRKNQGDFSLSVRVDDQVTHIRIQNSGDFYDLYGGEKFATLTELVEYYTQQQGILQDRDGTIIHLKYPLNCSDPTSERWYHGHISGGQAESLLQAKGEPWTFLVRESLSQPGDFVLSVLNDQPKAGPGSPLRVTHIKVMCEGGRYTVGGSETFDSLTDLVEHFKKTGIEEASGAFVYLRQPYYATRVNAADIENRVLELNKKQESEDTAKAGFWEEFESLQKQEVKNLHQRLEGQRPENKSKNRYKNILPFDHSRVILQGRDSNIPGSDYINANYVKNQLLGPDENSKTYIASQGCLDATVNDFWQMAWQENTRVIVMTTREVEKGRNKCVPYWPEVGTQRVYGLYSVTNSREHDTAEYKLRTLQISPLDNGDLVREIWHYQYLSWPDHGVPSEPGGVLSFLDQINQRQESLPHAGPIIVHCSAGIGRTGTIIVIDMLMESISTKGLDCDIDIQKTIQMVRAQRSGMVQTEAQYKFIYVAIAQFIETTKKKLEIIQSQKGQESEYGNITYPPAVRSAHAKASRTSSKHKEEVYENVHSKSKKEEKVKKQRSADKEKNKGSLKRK
Description: The beads were then washed 3 times in Tris buffer or without washing prior to in vitro PTPase assays.

Row | Compound | % of growth inhibition by day 6 (±s.d.) [1] | % of growth inhibition by day 6 (±s.d.) [2] | reversibility of SHP-1 inhibition [3]
1 | IFNα | 86 (3) % | 70 (15) % | –
2 | O.O.O.O.O.O.O.O.O.O=C([O-])[C@@H]1[O][Sb]2([O-])([O][Sb]34([OH])[O][C@H]([C@H](O)CO)[C@H]([O]3)[C@H](C(=O)[O-])[O]4)[O][C@H]([C@H](O)CO)[C@@H]1[O]2.[Na+].[Na+].[Na+] [sodium stibogluconate] | – | – | stable complexes
